Data: ChEMBL document CHEMBL4007388, “Synthesis and antiproliferative activity of monocationic arylthiophene derivatives” (Eur J Med Chem, 2017)

Assays:
CCRF-CEM = assay: Growth inhibition of human CCRF-CEM cells incubated for 48 hrs by sulforhodamine B assay; type: functional
HL-60(TB) = assay: Growth inhibition of human HL-60(TB) cells incubated for 48 hrs by sulforhodamine B assay; type: functional; details: HL-60, 48 h
K562 = assay: Growth inhibition of human K562 cells incubated for 48 hrs by sulforhodamine B assay; type: functional; details: K562, 48 h
MOLT-4 = assay: Growth inhibition of human MOLT4 cells incubated for 48 hrs by sulforhodamine B assay; type: functional; details: MOLT-4, 48 h
RPMI-8226 = assay: Growth inhibition of human RPMI8226 cells incubated for 48 hrs by sulforhodamine B assay; type: functional; details: RPMI-8226, 48 h
SR = assay: Growth inhibition of human SR cells incubated for 48 hrs by sulforhodamine B assay; type: functional
HOP-62 = assay: Growth inhibition of human HOP62 cells incubated for 48 hrs by sulforhodamine B assay; type: functional; details: HOP-62, 48 h
NCI-H322M = assay: Growth inhibition of human NCI-H322M cells incubated for 48 hrs by sulforhodamine B assay; type: functional
NCI-H522 = assay: Growth inhibition of human NCI-H522 cells incubated for 48 hrs by sulforhodamine B assay; type: functional; details: NCI-H522, 48 h
COLO 205 = assay: Growth inhibition of human COLO205 cells incubated for 48 hrs by sulforhodamine B assay; type: functional; details: COLO 205, 48 h
HCC 2998 = assay: Growth inhibition of human HCC2998 cells incubated for 48 hrs by sulforhodamine B assay; type: functional; details: HCC 2998, 48 h
HCT-116 = assay: Growth inhibition of human HCT116 cells incubated for 48 hrs by sulforhodamine B assay; type: functional; details: HCT-116, 48 h
HCT-15 = assay: Growth inhibition of human HCT15 cells incubated for 48 hrs by sulforhodamine B assay; type: functional; details: HCT-15, 48 h
HT-29 = assay: Growth inhibition of human HT-29 cells incubated for 48 hrs by sulforhodamine B assay; type: functional; details: HT-29, 48 h
KM12 = assay: Growth inhibition of human KM12 cells incubated for 48 hrs by sulforhodamine B assay; type: functional; details: KM12, 48 h
SW-620 = assay: Growth inhibition of human SW620 cells incubated for 48 hrs by sulforhodamine B assay; type: functional; details: SW-620, 48 h
SF-539 = assay: Growth inhibition of human SF539 cells incubated for 48 hrs by sulforhodamine B assay; type: functional; details: SF-539, 48 h
SNB-19 = assay: Growth inhibition of human SNB19 cells incubated for 48 hrs by sulforhodamine B assay; type: functional; details: SNB-19, 48 h
U-251 = assay: Growth inhibition of human U251 cells incubated for 48 hrs by sulforhodamine B assay; type: functional; details: U-251, 48 h
LOX IMVI = assay: Growth inhibition of human LOXIMVI cells incubated for 48 hrs by sulforhodamine B assay; type: functional
M14 = assay: Growth inhibition of human M14 cells incubated for 48 hrs by sulforhodamine B assay; type: functional; details: M14, 48 h
MDA-MB-435 = assay: Growth inhibition of human MDA-MB-435 cells incubated for 48 hrs by sulforhodamine B assay; type: functional; details: MDA-MB-435, 48 h
SK-MEL-28 = assay: Growth inhibition of human SK-MEL-28 cells incubated for 48 hrs by sulforhodamine B assay; type: functional; details: SK-MEL-28, 48 h
UACC-257 = assay: Growth inhibition of human UACC257 cells incubated for 48 hrs by sulforhodamine B assay; type: functional; details: UACC-257, 48 h
UACC-62 = assay: Growth inhibition of human UACC62 cells incubated for 48 hrs by sulforhodamine B assay; type: functional; details: UACC-62, 48 h
IGROV-1 = assay: Growth inhibition of human IGROV1 cells incubated for 48 hrs by sulforhodamine B assay; type: functional; details: IGROV-1, 48 h
OVCAR-3 = assay: Growth inhibition of human OVCAR3 cells incubated for 48 hrs by sulforhodamine B assay; type: functional; details: OVCAR-3, 48 h
OVCAR-5 = assay: Growth inhibition of human OVCAR5 cells incubated for 48 hrs by sulforhodamine B assay; type: functional; details: OVCAR-5, 48 h
OVCAR-8 = assay: Growth inhibition of human OVCAR8 cells incubated for 48 hrs by sulforhodamine B assay; type: functional; details: OVCAR-8, 48 h
NCI/ADR-RES = assay: Growth inhibition of human NCI/ADR-RES cells incubated for 48 hrs by sulforhodamine B assay; type: functional
SK-OV-3 = assay: Growth inhibition of human SKOV3 cells incubated for 48 hrs by sulforhodamine B assay; type: functional; details: SK-OV-3, 48 h
786-0 = assay: Growth inhibition of human 786-O cells incubated for 48 hrs by sulforhodamine B assay; type: functional; details: 786-0, 48 h
A498 = assay: Growth inhibition of human A498 cells incubated for 48 hrs by sulforhodamine B assay; type: functional; details: A498, 48 h
ACHN = assay: Growth inhibition of human ACHN cells incubated for 48 hrs by sulforhodamine B assay; type: functional
CAKI-1 = assay: Growth inhibition of human Caki1 cells incubated for 48 hrs by sulforhodamine B assay; type: functional; details: CAKI-1, 48 h
RXF 393 = assay: Growth inhibition of human RXF393 cells incubated for 48 hrs by sulforhodamine B assay; type: functional; details: RXF 393, 48 h
SN12C = assay: Growth inhibition of human SN12C cells incubated for 48 hrs by sulforhodamine B assay; type: functional
UO-31 = assay: Growth inhibition of human UO31 cells incubated for 48 hrs by sulforhodamine B assay; type: functional; details: UO-31, 48 h
PC-3 = assay: Growth inhibition of human PC3 cells incubated for 48 hrs by sulforhodamine B assay; type: functional; details: PC-3, 48 h
DU-145 = assay: Growth inhibition of human DU145 cells incubated for 48 hrs by sulforhodamine B assay; type: functional; details: DU-145, 48 h
BT-549 = assay: Growth inhibition of human BT549 cells incubated for 48 hrs by sulforhodamine B assay; type: functional; details: BT-549, 48 h
MDA-MB-468 = assay: Growth inhibition of human MDA-MB-468 cells incubated for 48 hrs by sulforhodamine B assay; type: functional; details: MDA-MB-468, 48 h
WI-38 = assay: Cytotoxicity against human WI38 cells assessed as reduction in cell viability after 24 hrs by MTT assay; type: cell-based; details: WI-38, 24 h
WISH = assay: Cytotoxicity against human WISH cells assessed as reduction in cell viability after 24 hrs by MTT assay; type: cell-based
[1] = Antioxidant activity assessed as superoxide dismutase-like activity by measuring inhibition of superoxide radical anion production at 2 uM by NBT reduction assay relative to control; type: functional
Escherichia coli = assay: Induction of Escherichia coli genomic DNA cleavage after 1 hr by agarose gel electrophoresis method
[2] = Growth inhibition of human NCI60 cells at 10 uM after 48 hrs by SRB assay relative to control; values are per cent of control; details: NCI60, 48 h

For `N=C(N)c1ccc(-c2ccc(-c3ccc(Cl)cc3)s2)cc1F`, the GI50 (CCRF-CEM) was 0.194 µM, the GI50 (HL-60(TB)) was 0.212 µM and the GI50 (K562) was 0.272 µM. For the same compound, the GI50 (MOLT-4) was 0.243 µM, the GI50 (RPMI-8226) was 0.248 µM and the GI50 (SR) was 0.218 µM. For the same compound, the GI50 (HOP-62) was 1.48 µM, the GI50 (NCI-H322M) was 0.386 µM and the GI50 (NCI-H522) was 0.194 µM. For the same compound, the GI50 (COLO 205) was 0.2 µM, the GI50 (HCC 2998) was 0.156 µM and the GI50 (HCT-116) was 0.171 µM. It also gave a GI50 (HCT-15) of 0.172 µM, a GI50 (HT-29) of 0.203 µM and a GI50 (KM12) of 0.226 µM. It also gave a GI50 (SW-620) of 0.186 µM, a GI50 (SF-539) of 0.206 µM and a GI50 (SNB-19) of 0.341 µM. The GI50 (U-251) was 0.203 µM, the GI50 (LOX IMVI) was 0.205 µM and the GI50 (M14) was 0.179 µM. The GI50 (MDA-MB-435) was 0.163 µM, the GI50 (SK-MEL-28) was 0.205 µM and the GI50 (UACC-257) was 1.62 µM. The GI50 (UACC-62) was 0.218 µM, the GI50 (IGROV-1) was 0.611 µM and the GI50 (OVCAR-3) was 0.268 µM. The GI50 (OVCAR-5) was 0.248 µM, the GI50 (OVCAR-8) was 0.983 µM and the GI50 (NCI/ADR-RES) was 0.361 µM. For the same compound, the GI50 (SK-OV-3) was 1.14 µM, the GI50 (786-0) was 0.192 µM and the GI50 (A498) was 1.38 µM. It also gave a GI50 (ACHN) of 0.203 µM, a GI50 (CAKI-1) of 0.173 µM and a GI50 (RXF 393) of 0.187 µM. The GI50 (SN12C) was 0.517 µM, the GI50 (UO-31) was 1.72 µM and the GI50 (PC-3) was 0.394 µM. It also gave a GI50 (DU-145) of 0.43 µM, a GI50 (BT-549) of 1.5 µM and a GI50 (MDA-MB-468) of 0.215 µM. It also gave an IC50 (WI-38) of 53.1 µM, an IC50 (WISH) of 64.2 µM and an inhibition [1] of 59%. The Activity (Escherichia coli) was “Dose-dependent effect” and the growth percent at 10 µM [2] was -67.3%.

For `COc1ccc(-c2ccc(-c3ccc(C(=N)N)c(F)c3)s2)cc1`, the GI50 (CCRF-CEM) was 3.11 µM, the GI50 (HL-60(TB)) was 2.19 µM and the GI50 (K562) was 2.66 µM. For the same compound, the GI50 (MOLT-4) was 3.26 µM, the GI50 (RPMI-8226) was 2.51 µM and the GI50 (SR) was 3.17 µM. The GI50 (HOP-62) was 10.4 µM, the GI50 (NCI-H322M) was 3.58 µM and the GI50 (NCI-H522) was 3.73 µM. For the same compound, the GI50 (COLO 205) was 1.78 µM, the GI50 (HCC 2998) was 1.85 µM and the GI50 (HCT-116) was 3.04 µM. For the same compound, the GI50 (HCT-15) was 2.58 µM, the GI50 (HT-29) was 2.79 µM and the GI50 (KM12) was 3.16 µM. It also gave a GI50 (SW-620) of 1.92 µM, a GI50 (SF-539) of 8.96 µM and a GI50 (SNB-19) of 9.44 µM. It also gave a GI50 (U-251) of 2.92 µM, a GI50 (LOX IMVI) of 2.23 µM and a GI50 (M14) of 1.9 µM. It also gave a GI50 (MDA-MB-435) of 1.83 µM, a GI50 (SK-MEL-28) of 2.31 µM and a GI50 (UACC-257) of 1.84 µM. The GI50 (UACC-62) was 1.82 µM, the GI50 (IGROV-1) was 4.38 µM and the GI50 (OVCAR-3) was 9.77 µM. It also gave a GI50 (OVCAR-5) of 4.98 µM, a GI50 (OVCAR-8) of 8.22 µM and a GI50 (NCI/ADR-RES) of 10.1 µM. The GI50 (SK-OV-3) was 9.21 µM, the GI50 (786-0) was 3.93 µM and the GI50 (A498) was 6.58 µM. It also gave a GI50 (ACHN) of 4.24 µM, a GI50 (CAKI-1) of 3.94 µM and a GI50 (RXF 393) of 4.68 µM. For the same compound, the GI50 (SN12C) was 5.97 µM, the GI50 (UO-31) was 3.17 µM and the GI50 (PC-3) was 4.05 µM. It also gave a GI50 (DU-145) of 6.25 µM, a GI50 (BT-549) of 5.9 µM and a GI50 (MDA-MB-468) of 1.39 µM. It also gave an IC50 (WI-38) of 104 µM, an IC50 (WISH) of 112 µM and an inhibition [1] of 55%. The Activity (Escherichia coli) was “Dose-dependent effect” and the growth percent at 10 µM [2] was -80.5%.
